The compounds below were run against T1, human serotonin transporter (hSERT) (Homo sapiens, UniProt P31645) (assay: Inhibition of 3H-serotonin uptake in HEK-293 cells stably transfected with the human serotonin transporter (SRI)). Details: HEK-293 cells expressing hSERT; 3H-5HT (50 nM); 5 min incubation; room temperature; read-out: serotonin re-uptake inhibition (SRI) IC50.
T1 construct: expressed in transfected cells; host or cells: HEK-293
Format: cell-based
Experimental: A number of compounds were tested for biological activity by their ability to inhibit the uptake of serotonin by human serotonin transporters as follows.
Human embryonic kidney cells (HEK-293) stably transfected with either the human serotonin transporter (hSERT), noradrenaline transporter (hNET) or dopamine transporter (hDAT) were cultured under standard cell culture techniques (cells were grown at 37° C. and 5% CO2 in DMEM-culture media (supplemented with 10% dialysed foetal calf serum (FCS), 2mM l-glutamine and 250 μg/ml geneticin)). Cells were harvested for the assay to yield a cell suspension of 750,000 cells/ml.
(i) Determination of Inhibitor Potency
All test compounds were dissolved in 100% DMSO and diluted down in assay buffer to give appropriate test concentrations. Assays were carried out in 96-well filter bottom plates. Cells (7500 cells/assay well) were pre-incubated in standard assay buffer containing either test compound, standard inhibitor or compound vehicle (1% DMSO) for 5 minutes. Reactions were started by addition of either ^3H-Serotonin, ^3H-Noradrenaline or ^3H-Dopamine substrates. All reactions were carried out at room temperature in a shaking incubator. Incubation times were 5 minutes for the hSERT and hDAT assays and 15 minutes for the hNET assay. Reactions were terminated by removal of the reaction mixture using a vacuum manifold followed by rapid washing with ice cold assay buffer. The quantity of ^3H-substrate incorporated into the cells was then quantified.
Assay plates were dried in a microwave oven, scintillation fluid added, and radioactivity measured.
(iii) Standard Assay Buffer Composition
Trizma hydrochloride (26 mM)
Note: The pH of the buffer was adjusted to 7.40 with 1M NaOH before addition of CaCl2 and pargyline.
(iv) Summary of Assay Parameters

T1 sequence (P31645 whole entry): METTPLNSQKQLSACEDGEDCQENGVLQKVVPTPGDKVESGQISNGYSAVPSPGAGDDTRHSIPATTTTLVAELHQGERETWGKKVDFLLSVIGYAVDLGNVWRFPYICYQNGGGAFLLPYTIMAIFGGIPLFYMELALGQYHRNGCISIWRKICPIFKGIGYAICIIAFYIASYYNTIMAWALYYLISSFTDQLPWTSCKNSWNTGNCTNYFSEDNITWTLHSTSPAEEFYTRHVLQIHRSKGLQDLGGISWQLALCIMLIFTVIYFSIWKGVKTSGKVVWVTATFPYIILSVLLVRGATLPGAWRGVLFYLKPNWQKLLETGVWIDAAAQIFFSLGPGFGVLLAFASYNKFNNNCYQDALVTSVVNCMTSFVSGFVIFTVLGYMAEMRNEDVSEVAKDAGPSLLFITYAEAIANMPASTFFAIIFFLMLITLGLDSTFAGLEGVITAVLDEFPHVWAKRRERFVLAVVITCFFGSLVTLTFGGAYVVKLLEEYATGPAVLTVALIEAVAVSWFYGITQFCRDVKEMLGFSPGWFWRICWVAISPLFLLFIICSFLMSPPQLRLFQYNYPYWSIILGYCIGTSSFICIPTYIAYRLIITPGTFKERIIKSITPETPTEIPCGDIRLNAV

Structure (SMILES)	IC50
CN(C)Cc1cc(S(N)(=O)=O)ccc1Oc1ccc2c(c1)CCS2 [Example 16, 4-(2,3-dihydro-1-benzothien-5-yloxy)-3-[(dimethylamino)methyl]-benzenesulfonamide]	4.7 nM
CN(C)Cc1ccccc1Oc1ccc2ncccc2c1 [Example 29, N,N-dimethyl-N-[2-(6-quinolinyloxy)benzyl]amine]	2 nM
CNCc1cc(C(=O)NC)ccc1Oc1ccc2c(c1)CCS2 [Example 62, 4-(2,3-dihydro-1-benzothien-5-yloxy)-N-methyl-3-[(methylamino)methyl]-benzamide]	3.7 nM
